The data set can be described thus: in vitro. To be noted: human, hela cells, % viability.

Structures are written as SMILES.

For orientation: viability means a read-out of living cells in per cent, often relative to untreated cells.

`O=C1CC[C@@H](NCc2ccccn2)[C@H](c2cc(F)cc(F)c2)N1` [CBK282911]: the viability at 28.5 h, 10 µM worked out at 98.8%.
Then `CCn1ncc(CN[C@@H]2CCC(=O)N[C@H]2c2cc(F)cc(F)c2)c1C` [CBK282914], with 98.3%.
As for `Cc1cc(N2CCCC2)c(F)cc1CN1CCC(CO)C1` (stereo not drawn) [CBK282916], the viability at 28.5 h, 10 µM amounted to 93.6%.
Then `O=C1NCC2(CCN(C(=O)c3cccs3)CC2)Oc2ccccc21` [CBK282917], with 100%; and `O=C1NCC2(CCN(C(=O)C3CCCC3)CC2)Oc2ccccc21` [CBK282920], with 94.1%; and `Cc1nn(-c2ccccc2)c2[nH]c(=O)c(CNC(C)(C)C)cc12` [CBK282921], with 101%.
Next, `CC(C)(C)C(=O)N1CCc2cc(C(O)CN3CCCC3)ccc21` (stereo not drawn) [CBK282923]: 93%; `CC1CCN(CC(O)c2ccc3c(c2)CCN3C(=O)C2CC2)CC1` (stereo not drawn) [CBK282927]: 102%; `Cc1cc(C)n(-c2cccc(CN3CCC(CO)C3)c2)n1` (stereo not drawn) [CBK282928]: 94.8%.
Next, `OCC1CCN(Cc2ccc(OC3CCCC3)cc2)C1` (stereo not drawn) [CBK282929]: 99.5%; `C[C@]12CN(Cc3ccccc3)C[C@H]1CNc1ccccc1C(=O)N2` [CBK282932]: 94.1%; `C=C(C)CN1CCN(C(=O)C(CC)Oc2ccccc2F)CC1` (stereo not drawn) [CBK282935]: 90.1%.
For the compound `CCN1CC(C(=O)N2CCN(C(=O)c3ccccc3F)CC2)CC1=O` (stereo not drawn) [CBK282937], the viability at 28.5 h, 10 µM is 92.3%.
Next, `Cn1cc(C2CCCCCN2Cc2cc(Cl)ccc2O)cn1` (stereo not drawn) [CBK282941]: 100%; `OC1(c2ccc(F)cc2)CC2CCC(C1)N2CC1=CCCOC1` (stereo not drawn) [CBK282942]: 106%; `OCCN(Cc1cccnc1)CC1(c2ccc(Cl)cc2)CC1` [CBK282943]: 101%.
Consider `Cc1cc2nc(C3CCCN3C(=O)CN3CCCCC3)[nH]c2cc1C` (stereo not drawn) [CBK282944], for which the viability at 28.5 h, 10 µM was found to be 91.3%.
For `OCCN(Cc1cccnc1)Cc1cccn1Cc1ccccc1F` [CBK282945], the viability at 28.5 h, 10 µM worked out at 93.5%.
Then `COCCCN(Cc1ccccn1)Cc1cccc(F)c1F` [CBK282947], with 84.5%.
Regarding `O=C(N[C@H]1C2CCCCC2[C@@H]1c1ccccc1)c1cncnc1` (stereo partly drawn) [CBK282949], the viability at 28.5 h, 10 µM came out at 94.3%.
Next, `COCCCN(Cc1ccccn1)Cc1cc(F)ccc1F` [CBK282950]: 108%; `O=C(COc1cccnc1)N[C@H]1C2CCCCC2[C@@H]1c1ccccc1` (stereo partly drawn) [CBK282951]: 100%; `CCn1ncc(CN(CCN(C)C)Cc2cccs2)c1C` [CBK282958]: 107%.
Then `Cc1nccn1CCCn1cncc1-c1ccc2c(c1)CCCN2C` [CBK282962], with 93.1%; and `Cc1cc(N2CCCC2)c(F)cc1CN1CCC(O)C(C)C1` (stereo not drawn) [CBK282963], with 91.6%; and `CC(C(=O)N[C@H]1C2CCCCC2[C@@H]1c1ccccc1)N1CCOCC1` (stereo partly drawn) [CBK282964], with 86.4%.
Next, `CCn1c(CN[C@@H]2CCC[C@H]2Cc2cc(C)no2)cnc1SC` [CBK282965]: 96.6%; `CC(C)C(=O)N1CCCC1c1cc2n(n1)[C@@H](C(F)(F)F)C[C@@H](C)N2` (stereo partly drawn) [CBK282966]: 106%.
As to `CCc1c(C)sc2ncn(C3CCNCC3)c(=O)c12` [CBK282972], the viability at 28.5 h, 10 µM came to 81.2%.
Then `Cc1ccsc1CN(Cc1nccn1C)CC(C)O` (stereo not drawn) [CBK282976], with 92.3%; and `Cc1nn(C(C)C)c(C)c1CN(CCCN(C)C)Cc1ccco1` [CBK282978], with 86.8%.
Then `O=C(C1CC1)N1CCC(c2nc(Cc3cccs3)no2)C1` (stereo not drawn) [CBK282980], with 89.6%; and `Fc1ccccc1CN(CCCn1ccnc1)Cc1ccncc1` [CBK282981], with 102%; and `Cc1ccsc1CN(CCCO)Cc1cn(C)nc1C` [CBK282983], with 95.7%.
Take `Cc1c(CNC2(c3ccccc3F)CCCC2)c(=O)n(C)c(=O)n1C` [CBK282986]: the viability at 28.5 h, 10 µM came to 85.1%.
For the compound `CCCc1cc(C2CCCCCN2C(=O)c2cccnc2)no1` (stereo not drawn) [CBK282987], the viability at 28.5 h, 10 µM worked out at 99.5%.
As for `Clc1ccccc1CN(CCCn1ccnc1)Cc1c[nH]cn1` [CBK282988], the viability at 28.5 h, 10 µM worked out at 100%.
Next, `COc1cccc(CN2CCCC(c3nc(C)n4ccccc34)C2)c1` (stereo not drawn) [CBK282989]: 101%; `COc1ccc([C@H]2C3CCCCC3[C@@H]2NC(=O)C2CCCO2)cc1` (stereo partly drawn) [CBK282990]: 108%; `Cc1cc(C)n(CC(=O)N2CCCC2c2ccc(C)c(C)c2)c(=O)n1` (stereo not drawn) [CBK282991]: 99%.
Turning to `Cc1ncc(CN(CCN(C)C)Cc2cccs2)n1C` [CBK282993], the viability at 28.5 h, 10 µM was 93.4%.
Then `O[C@@]1(c2ccccn2)CC[C@H]2CN(CC3CCCCC3)C[C@H]21` [CBK282996], with 96.9%; and `Cc1cc(C[C@@H]2CCC[C@H]2NCc2cc(Cl)ccc2O)on1` [CBK282997], with 103%.
Next, `CC(C)N1CCC(N(C)Cc2c[nH]nc2C(C)(C)C)CC1` [CBK283002]: 92.9%; `CCCC(=O)N1CCCC1c1cc2n(n1)[C@@H](C(F)(F)F)C[C@@H](C)N2` (stereo partly drawn) [CBK283003]: 92.4%.
`COc1ccccc1CN[C@@H]1CCC[C@H]1Cc1cc(C)no1` [CBK283005]: the viability at 28.5 h, 10 µM was determined as 103%.
As to `CC(=O)OCc1ccc(CN2CCCCCC2c2cc(C)no2)o1` (stereo not drawn) [CBK283007], the viability at 28.5 h, 10 µM worked out at 100%.
Next, `CCn1ncc(CN2CCCCCC2c2cc(C)no2)c1C` (stereo not drawn) [CBK283008]: 92.9%.
Next, `OC1(c2cccnc2)CCCN(Cc2ccccc2F)CC1` (stereo not drawn) [CBK283009]: 96.4%.
Regarding `O=C(Cn1cncn1)N[C@H]1C2CCCCC2[C@@H]1c1ccccc1` (stereo partly drawn) [CBK283011], the viability at 28.5 h, 10 µM was determined as 93.3%.
Then `CCC1c2cccn2CCN1Cc1cncn1CC` (stereo not drawn) [CBK283012], with 85.8%.
Then `Cc1nn(C)cc1CN(Cc1cccc(F)c1)CC1CCCO1` (stereo not drawn) [CBK283013], with 100%; and `Cc1nn(C)cc1CN(Cc1ccccc1F)CC1CCCO1` (stereo not drawn) [CBK283014], with 106%.
Next, `C=Cn1cc(CN2C3CCC2CC(O)(c2ccc(C)cc2)C3)c(C)n1` (stereo not drawn) [CBK283015]: 90.5%; `Cc1nn(C(C)C)c(C)c1CN(CCO)Cc1cccs1` [CBK283016]: 86%.
`OCCN(Cc1cccnc1)Cc1cccn1-c1ccccc1F` [CBK283019]: the viability at 28.5 h, 10 µM came to 92.2%.
Then `Cn1ccnc1CN(CCCn1ccnc1)Cc1ccccc1F` [CBK283022], with 102%.
Next, `OCCN(Cc1cccnc1)Cc1cccn1-c1ccc(F)cc1` [CBK283023]: 95.9%; `Fc1ccccc1CN(CCCn1ccnc1)Cc1ccoc1` [CBK283024]: 89.9%.
Then `CC(C)n1nccc1C(=O)NCC(c1ccc(F)cc1)N1CCCC1` (stereo not drawn) [CBK283025], with 87.3%.
Consider `COc1ccccc1CN1CCCC(c2nc(C)n3ccccc23)C1` (stereo not drawn) [CBK283026], for which the viability at 28.5 h, 10 µM amounted to 87.6%.
With `O=C(C1CCC1)N1CCC(c2nc(Cc3cccs3)no2)C1` (stereo not drawn) [CBK283028], the viability at 28.5 h, 10 µM stood at 90.9%.
Next, `Cc1ccc(CN[C@@H]2COC[C@H]2Cc2cc(C)no2)cc1` [CBK283030]: 106%; `CC(C)n1nccc1C(=O)NCC(c1ccccc1F)N1CCCC1` (stereo not drawn) [CBK283032]: 94.1%; `Cc1ccccc1-n1nc(C)c(CN(C)CC2CCN(C)C2)c1C` (stereo not drawn) [CBK283035]: 82.6%.
Next, `CCn1cncc1CN(Cc1ccc(F)cc1)CC1CCCO1` (stereo not drawn) [CBK283036]: 98%.
Next, `CN(C)CCCN(Cc1cnn(C)c1)Cc1ccco1` [CBK283039]: 112%; `CN(C)CCCN(Cc1cnn(-c2ccccc2)c1)Cc1ccco1` [CBK283040]: 110%; `O=C(NC1CCN(Cc2ccccc2)C1)c1ccc(F)cc1` (stereo not drawn) [CBK283044]: 97.8%.
For the compound `Cc1cc(C2CCCCCN2C(=O)c2c(Cl)cnn2C)on1` (stereo not drawn) [CBK283045], the viability at 28.5 h, 10 µM came out at 108%.
Regarding `Cn1ccc(C2CCCCCN2C(=O)c2cc(C3CC3)on2)n1` (stereo not drawn) [CBK283050], the viability at 28.5 h, 10 µM amounted to 104%.
Next, `CCN(CC)Cc1ccc(C(=O)N2CCC(c3ccncc3)CC2)o1` [CBK283051]: 105%; `Fc1ccc([C@@H]2CN(Cc3cccnc3)C[C@H]2c2cc[nH]n2)cc1` [CBK283054]: 100%.
Next, `O=C(C1CC1)N1CC2CN(Cc3ccccc3)CC2C12CCOCC2` (stereo not drawn) [CBK283055]: 103%; `CCCC(=O)N1CCCC(c2nnc(-c3cccs3)o2)C1` (stereo not drawn) [CBK283057]: 83.6%.
Then `Cc1ccc(-c2nnc(C3CCCN(C(=O)C(C)C)C3)o2)s1` (stereo not drawn) [CBK283058], with 96.9%; and `CCc1cc(CNS(=O)(=O)Cc2cccc(F)c2)on1` [CBK283061], with 92.1%.
Turning to `O=C(CCn1ccnc1)NCC1Cc2ccccc2O1` (stereo not drawn) [CBK283062], the viability at 28.5 h, 10 µM came to 81%.
For `Cc1cc(C)n(C)c(=O)c1C(=O)NC(C)Cc1ccccn1` (stereo not drawn) [CBK283063], the viability at 28.5 h, 10 µM turned out to be 105%.
Next, `CCc1cc(CNS(=O)(=O)c2ccc(C)s2)on1` [CBK283066]: 99.6%; `CC1Cc2cc(CC(=O)N(C)CC(F)(F)F)ccc2O1` (stereo not drawn) [CBK283067]: 109%; `Cc1[nH]c2cccc(C(=O)N(C)CCc3cn[nH]c3)c2c1C` [CBK283070]: 85.4%.
`CCCc1cc(C(=O)N2CCc3sccc3C2C)[nH]n1` (stereo not drawn) [CBK283072]: the viability at 28.5 h, 10 µM turned out to be 101%.
Next, `CCCC(=O)NC(c1ccccn1)C1CCC(CNC(C)=O)CC1` (stereo not drawn) [CBK283080]: 102%.

For the origin of these results see PMC12040169 (PLOS Biology, 2025).
